Results: patent US6855549B1, “Methods and compositions for increasing the infectivity of gene transfer vectors” (The University of Iowa Research Foundation, priority 1998, dated 2005)

How the values were obtained:
[1] = system: differentiated human airway epithelial cells; assay type: cell-based; settings: 5 μM AZT at addition of FIV-βgal vector/EGTA to apical surface
[2] = system: differentiated human airway epithelia; test: Transepithelial resistance of KGF-treated airway epithelia with Ca2+ chelators; assay type: cell-based
Experimental: Differentiated epithelial cells were treated with 100 ng/ml KGF for 24 hr. Different concentrations of each calcium chelator in HEPES/HCl (pH 7.4) or in isotonic HEPES/saline (pH 7.4) buffer were mixed with vector buffer and applied to the apical surface for times as specified (Wang et al., 1998). Transepithelial resistance was measured with an Ohmmeter (EVOM; World Precision Instruments, Inc. Sarasota, Fla.) by adding cell culture media to the apical surface and the values were compared to untreated controls.
To understand whether the tonicity of the vector solution affects epithelial permeability and gene transfer efficiency, hypotonic (40 mmol/kg) or isotonic (220 mmol/kg) solutions of 6 mM EGTA, EDTA or BAPTA were added to the MuLV vector buffer and applied to the apical surface of differentiated airway epithelial cells pre-treated with KGF. At specific time intervals, transepithelial resistance (R1) was measured using an Ohmmeter.

[3] = system: rabbit tracheal epithelium; test: Tracheal transepithelial voltage (Vt) in anesthetized rabbits; assay type: in vivo; settings: rabbit, in vivo
Experimental: Rabbit studies. The transepithelial electrical potential difference across the rabbit tracheal epithelium (Vt) was measured using a modification of previously described methods (Zabner et al., 1996). The reference electrode was a subcutaneous needle connected with sterile normal saline solution to a silver/silver chloride pellet. Adult New Zealand white rabbits (n=4/group) were anesthetized with 32 mg/kg ketamine, 5.1 mg/kg xylazine and 0.8 mg/kg acepromazine intramuscularly and placed with the head in the dependent position. An exploring electrode (pediatric size 8 Teflon-coated latex double lumen Foley catheter, modified Ruseh, Inc., Duluth, Ga.) was inserted into the tracheal lumen via a tracheotomy incision. One lumen of the catheter was filled with sterile normal saline solution and was connected to a silver/silver chloride pellet. Voltage was measured with a voltmeter connected to a strip chart recorder. The catheter was then left in that position for the entire recording period. The solutions were administered through the second lumen in the following order: 1) Normal saline for 5 min; 2) Sterile water with 10 mM EGTA for 10 min; 3) Normal saline with 10 mM EGTA for 5 min; and 4) Normal saline with 10 mM EGTA plus 100 μM amiloride for 5 min. Measurements of Vt were read by two investigators who were blinded to the treatment received. There wre no discrepancies in readings of greater than 2 mV between the investigators. Disruption of epithelial junctions was assessed by detecting a fall in […] Vt after perfusion with the chelator, and by the loss of amiloride-sensitive Vt after perfusion with the chelator solution.

[4] = system: human nasal epithelium; test: Nasal transepithelial voltage (Vt) in human volunteers; assay type: in vivo; settings: human, in vivo
Experimental: Human studies. The Vt across the nasal epithelium was measured in 6 volunteers using previously described methods (Zabner et al., 1996). The protocol followed was identical to that described above for the rabbit studies. […] The catheter was then left in that position for the entire recording period. The solutions were administered through the second lumen in the following order: 1) Normal saline for 5 min; 2) Sterile water with 10 mM EGTA or 10 mM EDTA for 10 min; 3) Nommal saline with 10 mM EGTA or 10 mM EDTA for 5 min; and 4) Normal saline with 10 mM, EGTA or 10 mM EDTA plus […] amiloride for 5 min. Measurements of Vt were read by two investigators who were blinded and wvere checked by a third investigator if there was a discrepancy of more than 2 mV. Disruption of epithelial junctions was assessed by detecting a fall in nasal Vt after perfusion with the chelator, and by the loss of amiloride-sensitive Vt after perfusion with the. chelator solution.

[5] = system: differentiated human airway epithelia; assay type: cell-based
[6] = system: human airway epithelia; test: BrdU labeling of differentiated human airway epithelia; assay type: cell-based; settings: for BrdU incorporation versus control epithelia: EGF 200 ng/ml, heregulin 5 nM
Experimental: BrdU immunohistochemistry. BrdU labeling and immunostaining was performed using a kit from Zymed Laboratories Inc. (South San Francisco, Calif.). In studies that investigate the effects of growth factors, the cells may be treated with 50-100 ng/ml growth factor for 36 h. A 1:100 dilution of the BrdU labeling reagent was added to the culture media and cells labeled for 4 hours followed by fixation in 10% neutralized Formalin. BrdU histochemistry was performed following the methods of the Zymed BrdU kit. Labeled nuclei stained brown under these conditions. Epithelial cell preparations were examined microscopically en face or in cross sections of paraffin embedded membranes and the percentage of brown staining nuclei determined. Hematoxylin or 4′,6-diamidino-2-phenylindole, dibydrochloride (DAPI) (Molecular Probes, Eugene, Oreg.) were used for counterstains.
To determine whether growth factors are mitogenic to human airway epithelia, primary cultures of cells grown at the air-liquid interface were utilized. These cultures have ion transport properties and morphology similar to the intact surface epithelium (Smith et al., 1996; Kondo et al., 1991) and after 14 days in culture the cells are well-differentiated, ciliated, and have ion transport properties similar to the intact airways (Zabner et al., 1996; Yamaya et al., 1992). […] After 24 hours of growth factor treatment, growth factor administration doubles the monolayer cell number compared to control. HGF treatment (200 ng/ml) increased cell labeling to 17-36%, while 5-10% of untreated controls were BrdU positive (n=3).

[7] = system: human airway epithelia; test: [3H] thymidine incorporation in primary cultures of human airway epithelia; assay type: cell-based; settings: 200 ng/ml HGF

## Cc1cn([C@H]2C[C@H](N=[N+]=[N-])[C@@H](CO)O2)c(=O)[nH]c1=O [AZT, 3′-azido-3′ deoxythymidine]
[1]
  expression of vector encoded product (pseudotransduction control): showed no significant expression of vector encoded product

## O=C(O)CN(CC(=O)O)c1ccccc1OCCOc1ccccc1N(CC(=O)O)CC(=O)O [BAPTA]
[2]; 6 mM, isotonic
  fall of R1, isotonic solution: quickly dropped R1, similar to the hypotonic solutions

## O=C(O)CN(CCN(CC(=O)O)CC(=O)O)CC(=O)O [EDTA]
[2]; 6 mM chelator, isotonic (220 mmol/kg)
  time required to decrease R1 to ~20% of the controls: Sixty

## N=C(N)NC(=O)c1nc(Cl)c(N)nc1N [amiloride]
[3]
  Vt response to amiloride in control tracheas perfused with saline: the anticipated fall in Vt in response to perfusion with amiloride
[4]
  nasal Vt response to amiloride in control studies: there was a significant fall in Vt with amiloride treatment

## O [water]
[5]; application of H2O or EGTA to epithelia, control studies
  effect on proliferation: had no effect on proliferation
[5]; pretreated with water alone, vector to mucosal surface, mean±SE, n=13
  epithelia expressing β-gal: 3±0.5%

## EGF: epidermal growth factor
[6]
  BrdU incorporation versus control epithelia: increased BrdU incorporation over control epithelia

## HGF: Hepatocyte growth factor, mitogen for pulmonary epithelia
[7]
  stimulation of cell division measured by [3H] thymidine incorporation: 3 fold
[6]; HGF 200 ng/ml, untreated controls 5-10% BrdU positive, n=3
  BrdU cell labeling: 17-36%

## heregulin
[6]
  BrdU incorporation versus control epithelia: increased BrdU incorporation over control epithelia
